# Source: ChEMBL document CHEMBL6134857, “Novel Spiro-Barbiturates Can Reverse the Action of General Anesthetics on the GABAAR” (J Med Chem, 2025)
# Calls of active or inactive are those of the source. The rule behind the calls is not given here.
# How the values were obtained:
# Format in all cases: cell membranes
# [1] = biological target: T1, GABA-A receptor; alpha-1/beta-3/gamma-2 (Homo sapiens) (UniProt P14867+P18507+P28472); experiment: Effect on [3H]muscimol binding to full length human N-terminal flag-tagged alpha1-beta3-C-terminal 1D4-tagged gamma2 GABAA receptor extracted from Tetracycline-resistant HEK293 cell membrane assessed as fold change in [3H]muscimol binding at 300 uM incubated for 30 mins; settings: filed as modulator
# [2] = biological target: T1, GABA-A receptor; alpha-1/beta-3/gamma-2 (Homo sapiens); experiment: Inhibition of R-mTFD-MPAB-induced [3H]muscimol binding to full length human N-terminal flag-tagged alpha1-beta3-C-terminal 1D4-tagged gamma2 GABAA receptor extracted from Tetracycline-resistant HEK293 cell membrane assessed as fold change at 300 uM incubated for 30 mins; settings: filed as modulator
# [3] = biological target: T1, GABA-A receptor; alpha-1/beta-3/gamma-2 (Homo sapiens); experiment: Effect on [3H]muscimol binding to full length human N-terminal flag-tagged alpha1-beta3-C-terminal 1D4-tagged gamma2 GABAA receptor extracted from Tetracycline-resistant HEK293 cell membrane assessed as [3H]muscimol binding at 300 uM incubated for 30 mins relative to control
# [4] = biological target: T1, GABA-A receptor; alpha-1/beta-3/gamma-2 (Homo sapiens); experiment: Inhibition of R-mTFD-MPAB-induced [3H]muscimol binding to full length human N-terminal flag-tagged alpha1-beta3-C-terminal 1D4-tagged gamma2 GABAA receptor extracted from Tetracycline-resistant HEK293 cell membrane at 300 uM incubated for 30 mins relative to control
# [5] = biological target: T1, GABA-A receptor; alpha-1/beta-3/gamma-2 (Homo sapiens); experiment: (§1) Modulation of [3H]flunitrazepam binding to full length human N-terminal flag-tagged alpha1-beta3-C-terminal 1D4-tagged gamma2 GABAA receptor extracted from Tetracycline-resistant HEK293 cell membrane assessed as fold change in [3H]flunitrazepam binding at 300 uM incubated for 30 mins; settings: filed as modulator
# [6] = biological target: T1, GABA-A receptor; alpha-1/beta-3/gamma-2 (Homo sapiens); experiment: as §1, with “Inhibition” for “Modulation”, “reduction” for “fold change”, “mins relative to control” for “mins”
SMILES,fold change (FC) [1],fold change (FC) [2],Activity [3],inhibition [4] [%],fold change (FC) [5],inhibition [6] [%],Activity ([3]; filed as modulator) [%]
N=C1NC(=O)C2(CCc3ccc(Cl)cc32)C(=O)N1 (stereo unspecified),0.02,0.53,< 10%,> 40,,,
CC(C)c1ccc2c(c1)C1(CC2)C(=O)NC(=S)NC1=O,0.54,0.87,< 10%,> 40,,,
CC1Cc2ccccc2C12C(=O)NC(=O)NC2=O (stereo in doubt; 10g-1),0.06,0.9,,,,,
O=C1NC(=O)C2(CCc3ccc(Cl)cc32)C(=O)N1,0.15,0.88,< 10%,> 40,,,
CC1Cc2ccccc2C12C(=O)NC(=O)NC2=O (stereo in doubt; 10g-2),0.13,0.95,,,,,
CC1CC2(C(=O)NC(=O)NC2=O)c2ccccc21 (stereo in doubt; 11g-2),0.15,0.99,,,,,
O=C1NC(=O)C2(CC(O)c3ccccc32)C(=O)N1 (stereo in doubt; 1t-1),0,0.98,,,,,
CN1C(=O)NC(=O)C2(CCc3ccc(Br)cc32)C1=O (stereo in doubt; 6h-1),0.4,0.99,,,0.65,12,
CCCN1C(=O)NC(=O)C2(CCc3ccccc32)C1=O (stereo in doubt; 1j-1),0.31,0.95,,,,,
O=C1NC(=S)NC(=O)C12CCc1ccccc12,0.02,0.78,,,,,
CN1C(=O)NC(=O)C2(CCCCc3ccccc32)C1=O (stereo in doubt; 3h-2),0.1,0.98,,,,,
O=C1NC(=S)NC(=O)C12CCc1ccc(Br)cc12,0.43,0.74,< 10%,> 40,,,
COc1ccc2c(c1)C1(CC2)C(=O)NC(=O)N(C)C1=O (stereo in doubt; 7h-1),0.36,1.06,,,0.55,45,
O=C1NC(=O)C2(CC(O)c3ccccc32)C(=O)N1 (stereo in doubt; 1t-2),0.02,0.55,inactive,45,,,
CCN1C(=O)NC(=O)C2(CCc3ccccc32)C1=O (stereo in doubt; 1i-2),0.11,0.86,,,,,
CCC1(c2ccccc2)C(=O)NC(=O)NC1=O,0.43,0.88,,12,,,43
N#CSC1CC2(C(=O)NC(=O)NC2=O)c2ccccc21 (stereo in doubt; 1y-1),0.2,0.61,,,,,
N=C1NC(=O)C2(CCc3ccc(F)cc32)C(=O)N1 (stereo unspecified),-0.02,0.58,< 10%,> 40,,,
CN1C(=O)NC(=O)C2(CCCCc3ccccc32)C1=O (stereo in doubt; 3h-1),0.32,0.93,,,,,
COc1ccc2c(c1)C1(CC2)C(=O)NC(=O)N(C)C1=O (stereo in doubt; 7h-2),0.37,0.73,,,0.88,12,
COc1ccc2c(c1)C1(CC2)C(=O)NC(=O)NC1=O,0,0.69,< 10%,> 40,,,
CN1C(=O)NC(=O)C2(CCCc3ccccc32)C1=O (stereo in doubt; 2h-2),-0.01,0.8,,,,,
CN1C(=O)NC(=O)[C@]2(CCc3ccccc32)C1=O,0.16,0.67,,,0.67,12,

SMILES,fold change (FC) [1],fold change (FC) [2],Activity [3],inhibition [4] [%],fold change (FC) [5],inhibition [6] [%],Activity ([3]; filed as modulator) [%]
NC1CC2(C(=O)NC(=O)NC2=O)c2ccccc21 (racemic),0.1,0.81,inactive,19,,,
CC(C)c1ccc2c(c1)C1(CC2)C(=O)NC(=O)N(C)C1=O (stereo in doubt; 5h-2),0.14,0.97,,,0.59,12,
Cc1ccc2c(c1)C1(CC2)C(=O)NC(=N)NC1=O (stereo unspecified),-0.09,0.36,< 10%,> 40,,,
CN1C(=O)N(C)C(=O)C2(CCc3ccccc32)C1=O,0.07,0.98,,,,,
CCCN1C(=O)NC(=O)C2(CCc3ccccc32)C1=O (stereo in doubt; 1j-2),0.05,0.95,,,,,
N=C1NC(=O)C2(CCc3ccc(Br)cc32)C(=O)N1 (stereo unspecified),0.03,0.53,< 10%,> 40,,,
O=C1NC(=O)C2(CCc3ccc(F)cc32)C(=O)N1,0.07,0.73,< 10%,> 40,,,
CN1C(=O)NC(=O)[C@@]2(CCc3ccccc32)C1=O,0.08,0.78,,,0.56,12,
CN1C(=O)NC(=O)C2(CCc3ccc(Br)cc32)C1=O (stereo in doubt; 6h-2),0.35,1.09,,,0.61,12,
O=C1NC(=O)C2(CCc3ccc(Br)cc32)C(=O)N1,0.05,0.9,< 10%,> 40,,,
NN=C1NC(=O)C2(CCc3ccccc32)C(=O)N1 (stereo unspecified),-0.02,0.66,,,,,
COc1ccc2c(c1)C1(CC2)C(=O)NC(=S)NC1=O,0.2,1.04,< 10%,> 40,,,
CCN1C(=O)NC(=O)C2(CCc3ccccc32)C1=O (stereo in doubt; 1i-1),0.05,0.86,,,,,
Cc1ccc2c(c1)C1(CC2)C(=O)NC(=O)N(C)C1=O (stereo in doubt; 4h-1),0.15,0.88,,,0.76,12,
O=C1NC(=NO)NC(=O)C12CCc1ccccc12 (stereo unspecified),0.07,0.66,,,,,
Cc1ccc2c(c1)C1(CC2)C(=O)NC(=O)NC1=O,0.06,0.87,< 10%,> 40,,,
Cc1ccc2c(c1)C1(CC2)C(=O)NC(=S)NC1=O,0.02,0.94,< 10%,> 40,,,
CC1CC2(C(=O)NC(=O)NC2=O)c2ccccc21 (stereo in doubt; 11g-1),0.06,0.96,,,,,
CN1C(=O)NC(=O)C2(CCCc3ccccc32)C1=O (stereo in doubt; 2h-1),0.13,0.9,,,,,
O=C1NC(=O)C2(CCCc3ccccc32)C(=O)N1,0.08,0.97,,,0.45,12,
Cc1ccc2c(c1)C1(CC2)C(=O)NC(=O)N(C)C1=O (stereo in doubt; 4h-2),0.37,0.54,,,0.72,12,
O=C1NC(=O)C2(CCCCc3ccccc32)C(=O)N1,0.22,0.98,,,0.43,12,
N#CSC1CC2(C(=O)NC(=O)NC2=O)c2ccccc21 (stereo in doubt; 1y-2),0.3,0.67,,,,,
